From ChEMBL document CHEMBL5291721, “A preclinical secondary pharmacology resource illuminates target-adverse drug reaction associations of marketed drugs” (Nat Commun, 2023)

Legend:
[1] = target: Beta-3 adrenergic receptor (Homo sapiens, UniProt P13945)
[2] = target: T1, Corticotropin-releasing factor receptor 1 (Homo sapiens, UniProt P34998)
T1 sequence (P34998 whole entry): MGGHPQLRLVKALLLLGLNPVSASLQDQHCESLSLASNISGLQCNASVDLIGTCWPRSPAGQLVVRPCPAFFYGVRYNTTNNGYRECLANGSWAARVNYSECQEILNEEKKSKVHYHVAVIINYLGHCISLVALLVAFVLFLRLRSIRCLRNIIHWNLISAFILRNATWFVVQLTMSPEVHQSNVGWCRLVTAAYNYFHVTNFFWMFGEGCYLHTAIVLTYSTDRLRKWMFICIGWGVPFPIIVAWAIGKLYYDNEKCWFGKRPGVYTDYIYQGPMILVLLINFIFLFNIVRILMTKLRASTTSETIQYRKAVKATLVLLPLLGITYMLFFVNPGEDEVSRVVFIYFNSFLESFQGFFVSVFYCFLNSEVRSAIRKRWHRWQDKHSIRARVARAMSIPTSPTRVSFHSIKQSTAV

[3] = target: Muscarinic acetylcholine receptor M3 (Homo sapiens, UniProt P20309)
Chain of Muscarinic acetylcholine receptor M3 (P20309 whole entry): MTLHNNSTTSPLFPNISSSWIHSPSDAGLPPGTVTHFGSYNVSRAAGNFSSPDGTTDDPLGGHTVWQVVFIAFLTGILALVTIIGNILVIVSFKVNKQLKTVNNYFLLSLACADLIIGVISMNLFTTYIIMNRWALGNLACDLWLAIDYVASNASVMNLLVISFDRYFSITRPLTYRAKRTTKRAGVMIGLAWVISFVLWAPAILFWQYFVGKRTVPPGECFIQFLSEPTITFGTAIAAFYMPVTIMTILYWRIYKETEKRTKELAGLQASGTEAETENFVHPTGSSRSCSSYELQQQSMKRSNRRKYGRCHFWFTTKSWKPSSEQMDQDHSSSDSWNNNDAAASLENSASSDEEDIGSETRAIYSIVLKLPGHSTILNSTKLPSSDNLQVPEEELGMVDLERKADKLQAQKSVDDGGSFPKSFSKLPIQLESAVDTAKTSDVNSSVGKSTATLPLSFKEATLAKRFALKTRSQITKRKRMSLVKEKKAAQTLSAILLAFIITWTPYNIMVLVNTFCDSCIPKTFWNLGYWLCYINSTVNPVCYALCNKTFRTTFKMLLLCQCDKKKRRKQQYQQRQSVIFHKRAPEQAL

[4] = target: T2, Alpha-2B adrenergic receptor (Homo sapiens, UniProt P18089)
T2 sequence (P18089 whole entry): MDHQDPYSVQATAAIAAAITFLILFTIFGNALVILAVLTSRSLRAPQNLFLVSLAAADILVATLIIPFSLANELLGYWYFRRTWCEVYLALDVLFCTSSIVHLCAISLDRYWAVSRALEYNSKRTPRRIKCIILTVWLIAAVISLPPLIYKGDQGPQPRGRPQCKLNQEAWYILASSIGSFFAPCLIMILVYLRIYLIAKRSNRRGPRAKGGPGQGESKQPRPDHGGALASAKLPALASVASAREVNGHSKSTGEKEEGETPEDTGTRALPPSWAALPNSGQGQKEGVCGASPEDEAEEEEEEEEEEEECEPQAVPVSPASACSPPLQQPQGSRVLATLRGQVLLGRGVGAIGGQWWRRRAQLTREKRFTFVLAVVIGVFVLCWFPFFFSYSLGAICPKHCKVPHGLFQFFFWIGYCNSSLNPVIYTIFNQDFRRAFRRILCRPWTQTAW

[5] = target: T3, 5-hydroxytryptamine receptor 2C (Homo sapiens, UniProt P28335)
T3 sequence (P28335 whole entry): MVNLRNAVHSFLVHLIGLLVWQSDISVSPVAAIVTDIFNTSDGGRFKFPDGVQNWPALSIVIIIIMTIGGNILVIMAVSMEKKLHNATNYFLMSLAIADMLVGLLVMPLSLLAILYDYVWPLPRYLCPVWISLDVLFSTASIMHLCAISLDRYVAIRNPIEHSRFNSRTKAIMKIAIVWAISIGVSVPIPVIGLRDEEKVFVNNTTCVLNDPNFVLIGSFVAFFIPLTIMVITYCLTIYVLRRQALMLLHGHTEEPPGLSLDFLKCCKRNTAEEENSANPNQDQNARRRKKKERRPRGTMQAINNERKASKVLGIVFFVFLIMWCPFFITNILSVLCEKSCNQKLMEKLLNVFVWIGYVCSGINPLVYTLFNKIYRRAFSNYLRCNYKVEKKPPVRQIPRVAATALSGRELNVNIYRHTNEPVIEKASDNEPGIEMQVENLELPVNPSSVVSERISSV

[6] = target: T4, Alpha-1A adrenergic receptor (Homo sapiens, UniProt P35348)
T4 sequence (P35348 whole entry): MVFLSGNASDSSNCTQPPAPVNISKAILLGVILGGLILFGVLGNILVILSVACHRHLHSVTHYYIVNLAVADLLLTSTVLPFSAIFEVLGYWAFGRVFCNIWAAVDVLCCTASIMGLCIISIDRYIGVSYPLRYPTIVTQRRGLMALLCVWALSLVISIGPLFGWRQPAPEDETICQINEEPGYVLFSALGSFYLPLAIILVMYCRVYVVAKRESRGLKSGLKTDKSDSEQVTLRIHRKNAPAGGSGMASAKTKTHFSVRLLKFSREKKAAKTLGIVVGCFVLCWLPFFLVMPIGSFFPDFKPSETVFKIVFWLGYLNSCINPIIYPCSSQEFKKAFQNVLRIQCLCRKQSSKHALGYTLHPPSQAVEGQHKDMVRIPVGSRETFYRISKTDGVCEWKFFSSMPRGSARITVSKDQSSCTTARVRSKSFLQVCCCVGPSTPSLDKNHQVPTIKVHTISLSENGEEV

Histamine H1 receptor = Histamine H1 receptor (Homo sapiens, UniProt P35367)
Chain of Histamine H1 receptor (P35367 whole entry): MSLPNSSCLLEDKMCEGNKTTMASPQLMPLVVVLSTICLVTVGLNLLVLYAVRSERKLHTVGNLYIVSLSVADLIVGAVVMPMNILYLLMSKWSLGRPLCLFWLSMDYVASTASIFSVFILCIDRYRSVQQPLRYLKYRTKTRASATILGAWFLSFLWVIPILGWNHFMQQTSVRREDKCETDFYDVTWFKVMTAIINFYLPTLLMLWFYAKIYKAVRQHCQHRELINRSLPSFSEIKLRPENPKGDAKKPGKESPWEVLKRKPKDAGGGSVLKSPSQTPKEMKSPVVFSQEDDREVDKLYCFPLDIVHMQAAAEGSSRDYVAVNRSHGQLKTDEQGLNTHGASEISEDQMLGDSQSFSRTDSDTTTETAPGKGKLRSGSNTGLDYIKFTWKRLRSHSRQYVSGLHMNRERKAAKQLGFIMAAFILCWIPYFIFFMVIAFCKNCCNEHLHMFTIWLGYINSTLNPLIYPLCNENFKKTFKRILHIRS

[7] = target: Gamma-aminobutyric acid receptor subunit alpha-1/alpha-2/beta-2/gamma-2 (Homo sapiens, UniProt P14867+P18507+P47869+P47870); format: protein-complex assay
Chain of Gamma-aminobutyric acid receptor subunit alpha-1/alpha-2/beta-2/gamma-2 (P14867 whole entry): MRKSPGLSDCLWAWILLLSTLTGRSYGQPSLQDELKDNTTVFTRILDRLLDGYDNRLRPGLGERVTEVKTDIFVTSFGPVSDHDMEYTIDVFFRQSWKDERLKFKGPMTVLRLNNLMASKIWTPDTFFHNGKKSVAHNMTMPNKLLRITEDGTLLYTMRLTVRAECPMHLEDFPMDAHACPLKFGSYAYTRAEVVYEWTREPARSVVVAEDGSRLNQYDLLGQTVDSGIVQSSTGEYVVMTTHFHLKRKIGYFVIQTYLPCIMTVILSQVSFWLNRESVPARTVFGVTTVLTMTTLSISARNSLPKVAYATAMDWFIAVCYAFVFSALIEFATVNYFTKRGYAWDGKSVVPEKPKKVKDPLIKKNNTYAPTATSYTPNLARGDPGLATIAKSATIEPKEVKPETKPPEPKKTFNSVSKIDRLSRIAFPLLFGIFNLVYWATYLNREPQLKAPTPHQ
Chain of Gamma-aminobutyric acid receptor subunit alpha-1/alpha-2/beta-2/gamma-2 (P47870 whole entry): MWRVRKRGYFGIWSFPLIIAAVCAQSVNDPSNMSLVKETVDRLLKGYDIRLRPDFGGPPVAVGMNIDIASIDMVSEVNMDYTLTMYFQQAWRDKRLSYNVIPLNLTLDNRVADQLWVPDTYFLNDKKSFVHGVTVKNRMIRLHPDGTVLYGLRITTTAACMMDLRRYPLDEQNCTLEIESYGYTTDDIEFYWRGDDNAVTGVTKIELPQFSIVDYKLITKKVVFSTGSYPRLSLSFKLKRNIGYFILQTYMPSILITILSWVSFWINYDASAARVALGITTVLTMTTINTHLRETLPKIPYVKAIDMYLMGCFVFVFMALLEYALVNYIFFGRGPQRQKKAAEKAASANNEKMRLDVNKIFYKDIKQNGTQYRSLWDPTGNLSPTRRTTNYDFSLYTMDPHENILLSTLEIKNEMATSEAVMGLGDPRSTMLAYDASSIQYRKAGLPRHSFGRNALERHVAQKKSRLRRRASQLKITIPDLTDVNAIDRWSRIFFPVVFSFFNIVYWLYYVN
Chain of Gamma-aminobutyric acid receptor subunit alpha-1/alpha-2/beta-2/gamma-2 (P18507 whole entry): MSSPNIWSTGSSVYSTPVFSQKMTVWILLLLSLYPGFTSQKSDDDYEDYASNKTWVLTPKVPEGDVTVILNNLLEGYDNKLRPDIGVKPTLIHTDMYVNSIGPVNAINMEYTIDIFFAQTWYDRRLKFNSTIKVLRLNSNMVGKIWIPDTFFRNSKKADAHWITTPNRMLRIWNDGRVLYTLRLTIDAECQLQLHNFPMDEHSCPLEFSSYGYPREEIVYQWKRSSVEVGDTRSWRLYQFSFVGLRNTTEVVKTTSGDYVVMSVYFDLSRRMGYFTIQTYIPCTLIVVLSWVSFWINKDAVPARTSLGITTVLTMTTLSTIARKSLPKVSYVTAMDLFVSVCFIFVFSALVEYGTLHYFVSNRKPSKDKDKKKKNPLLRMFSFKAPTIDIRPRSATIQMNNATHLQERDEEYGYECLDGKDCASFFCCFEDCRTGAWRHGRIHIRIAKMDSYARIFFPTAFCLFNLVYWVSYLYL
Chain of Gamma-aminobutyric acid receptor subunit alpha-1/alpha-2/beta-2/gamma-2 (P47869 whole entry): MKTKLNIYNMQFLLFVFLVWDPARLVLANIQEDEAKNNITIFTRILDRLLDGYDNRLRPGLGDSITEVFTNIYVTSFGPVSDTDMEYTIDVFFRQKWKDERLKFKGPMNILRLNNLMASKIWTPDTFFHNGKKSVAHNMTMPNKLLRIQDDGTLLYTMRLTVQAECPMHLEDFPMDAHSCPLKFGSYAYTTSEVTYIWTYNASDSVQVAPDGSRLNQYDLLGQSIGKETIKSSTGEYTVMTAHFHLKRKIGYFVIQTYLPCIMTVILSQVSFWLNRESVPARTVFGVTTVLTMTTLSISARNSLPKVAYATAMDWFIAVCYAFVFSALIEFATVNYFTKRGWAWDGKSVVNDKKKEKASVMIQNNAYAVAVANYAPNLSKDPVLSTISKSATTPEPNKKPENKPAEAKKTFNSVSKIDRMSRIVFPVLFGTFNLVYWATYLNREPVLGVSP

Mu-type opioid receptor = Mu-type opioid receptor (Homo sapiens, UniProt P35372); experiment: biochemical; format: functional
Chain of Mu-type opioid receptor (P35372 whole entry): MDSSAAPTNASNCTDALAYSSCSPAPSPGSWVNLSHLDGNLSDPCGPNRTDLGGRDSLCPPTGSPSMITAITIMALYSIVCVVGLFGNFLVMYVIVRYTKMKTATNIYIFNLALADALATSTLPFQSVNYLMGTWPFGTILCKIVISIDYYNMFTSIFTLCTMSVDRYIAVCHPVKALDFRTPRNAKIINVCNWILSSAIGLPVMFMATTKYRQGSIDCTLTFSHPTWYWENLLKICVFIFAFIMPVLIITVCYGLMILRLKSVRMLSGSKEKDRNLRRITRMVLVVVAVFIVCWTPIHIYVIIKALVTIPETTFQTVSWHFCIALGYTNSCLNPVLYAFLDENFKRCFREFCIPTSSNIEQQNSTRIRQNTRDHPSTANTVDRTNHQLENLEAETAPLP
Also: assay procedure not described here.

Chain of Beta-3 adrenergic receptor (P13945 whole entry): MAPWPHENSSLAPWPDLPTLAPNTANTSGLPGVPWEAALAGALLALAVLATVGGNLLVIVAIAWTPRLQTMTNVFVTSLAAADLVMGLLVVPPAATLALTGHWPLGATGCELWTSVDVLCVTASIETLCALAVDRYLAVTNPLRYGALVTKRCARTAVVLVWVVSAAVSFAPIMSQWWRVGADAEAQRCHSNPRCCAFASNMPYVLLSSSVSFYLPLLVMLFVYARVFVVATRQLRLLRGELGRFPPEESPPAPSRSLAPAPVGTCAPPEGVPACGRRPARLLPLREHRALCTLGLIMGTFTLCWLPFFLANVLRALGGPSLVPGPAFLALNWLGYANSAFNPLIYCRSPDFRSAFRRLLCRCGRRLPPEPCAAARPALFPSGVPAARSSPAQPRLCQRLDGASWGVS

SMILES | AC50 [4] [µM] | AC50 [5] [µM] | AC50 [6] [µM] | AC50 [7] [µM] | AC50 (Mu-type opioid receptor) [µM] | also measured
CC(C)N(CCC(C(N)=O)(c1ccccc1)c1ccccn1)C(C)C (stereo unspecified) [DISOPYRAMIDE] | > 10 | > 30 | > 10 |  |  | AC50 [1]: 8.37 µM; AC50 [2]: > 30 µM; AC50 [3]: > 30 µM; AC50 (Histamine H1 receptor): > 10 µM
Cc1onc(-c2ccccc2)c1C(=O)N[C@@H]1C(=O)N2[C@@H]1SC(C)(C)[C@@H]2C(=O)O [OXACILLIN] |  |  |  | > 30 |  | 
CC(N)C12CC3CC(CC(C3)C1)C2 (stereo unspecified) [RIMANTADINE] |  | > 30 | > 10 |  |  | 
Cc1ccccc1C(=O)Nc1ccc(C(=O)N2CCCC(N(C)C)c3ccccc32)cc1 (stereo unspecified) [MOZAVAPTAN] |  |  |  | > 30 |  | 
CCOC(=O)C1=C[C@@H](OC(CC)CC)[C@H](NC(C)=O)[C@@H](N)C1 [OSELTAMIVIR] |  |  |  | > 30 |  | 
C[C@]12C=CC(=O)N[C@@H]1CC[C@@H]1[C@@H]2CC[C@]2(C)[C@@H](C(=O)Nc3cc(C(F)(F)F)ccc3C(F)(F)F)CC[C@@H]12 [DUTASTERIDE] | > 10 | > 30 | > 10 |  | > 30 | AC50 [3]: > 30 µM; AC50 (Histamine H1 receptor): > 10 µM
C[N+](C)(C)C[C@H](O)CC(=O)[O-] [LEVOCARNITINE] |  |  |  | > 30 |  | 
C[C@]1(Cn2ccnn2)[C@H](C(=O)O)N2C(=O)C[C@H]2S1(=O)=O [TAZOBACTAM] |  |  |  | > 30 |  | 
O=C1C(CC[S+]([O-])c2ccccc2)C(=O)N(c2ccccc2)N1c1ccccc1 (stereo unspecified) [SULFINPYRAZONE] |  | > 30 | > 10 |  | > 30 | 
COc1c2ccoc2cc2oc(=O)ccc12 [BERGAPTEN] |  |  |  | > 30 |  | 
CC(C)(O)CNc1nc(Nc2ccnc(C(F)(F)F)c2)nc(-c2cccc(C(F)(F)F)n2)n1 [ENASIDENIB] |  |  |  | > 30 |  | 
Nc1ccc(S(=O)(=O)Nc2nccs2)cc1 [SULFATHIAZOLE] |  | > 30 | 5.1 |  |  | AC50 [1]: > 30 µM; AC50 [2]: > 30 µM
CC(CN1CC(=O)NC(=O)C1)N1CC(=O)NC(=O)C1 (stereo unspecified) [RAZOXANE] |  |  |  | > 30 |  | 
CCN(CC)CCNC(=O)c1c(C)[nH]c(/C=C2\C(=O)Nc3ccc(F)cc32)c1C [SUNITINIB] | 4.37 | 2.25 |  |  | > 30 | 
N[C@@H](CS)C(=O)O [CYSTEINE] |  |  |  | > 30 |  | 
CC[C@H]1OC(=O)[C@H](C)C(=O)[C@H](C)[C@@H](O[C@@H]2O[C@H](C)C[C@H](N(C)C)[C@H]2O)[C@](C)(OC)C[C@@H](C)C(=O)[C@H](C)[C@H]2N(CCCCn3cnc(-c4cccnc4)c3)C(=O)O[C@]12C [TELITHROMYCIN] |  |  |  | > 30 |  | 
O=C1CCc2cc(OCCCCc3nnnn3C3CCCCC3)ccc2N1 [CILOSTAZOL] |  | > 30 | > 10 |  | > 30 | 
C[C@H]1c2cccc(O)c2C(=O)C2=C(O)[C@]3(O)C(=O)C(C(N)=O)=C(O)[C@@H](N(C)C)[C@@H]3[C@@H](O)[C@@H]21 [DOXYCYCLINE] |  | > 30 | 3.4 |  |  | AC50 [1]: > 30 µM; AC50 [2]: > 30 µM
C#C[C@]1(O)CC[C@H]2[C@@H]3CCC4=CC(=O)CC[C@@H]4[C@H]3C(=C)C[C@@]21CC [ETONOGESTREL] | > 30 | > 10 |  |  | > 30 | AC50 [3]: > 30 µM; AC50 (Histamine H1 receptor): > 30 µM
CN1C(C(=O)Nc2ccccn2)=C(O)c2ccccc2S1(=O)=O [PIROXICAM] |  | > 30 | > 30 |  | > 30 | 

SMILES | AC50 [4] [µM] | AC50 [5] [µM] | AC50 [6] [µM] | AC50 [7] [µM] | AC50 (Mu-type opioid receptor) [µM] | also measured
CC(C)OC(=O)CCC/C=C\C[C@@H]1[C@@H](/C=C/C(F)(F)COc2ccccc2)[C@H](O)C[C@@H]1O [TAFLUPROST] |  |  |  | > 30 |  | 
C[C@H]1O[C@@H](n2cc(F)c(=O)[nH]c2=O)[C@H](O)[C@@H]1O [DOXIFLURIDINE] |  |  |  | > 30 |  | 
O=C(O)COc1ccc(C(=O)c2cccs2)c(Cl)c1Cl |  |  |  | > 10 |  | 
C[C@@H]1C[C@H]2[C@@H]3CCC4=CC(=O)C=C[C@]4(C)[C@@]3(Cl)[C@@H](O)C[C@]2(C)[C@@]1(OC(=O)c1ccco1)C(=O)CCl [MOMETASONE FUROATE] |  |  |  | > 30 |  | 
C[C@@H](NCCCc1cccc(C(F)(F)F)c1)c1cccc2ccccc12 | > 30 | 0.73 |  |  | 1.9 | AC50 [3]: 14 µM; AC50 (Histamine H1 receptor): 16 µM
CCCN(CCC)C(=O)Cc1c(-c2ccc(Cl)cc2)nc2ccc(Cl)cn12 [ALPIDEM] | > 30 | > 30 | > 30 |  | > 30 | AC50 [3]: > 30 µM; AC50 (Histamine H1 receptor): > 30 µM
CC(=O)O[C@]1(C(C)=O)CC[C@H]2[C@@H]3C=C(C)C4=CC(=O)CC[C@@H]4[C@H]3CC[C@@]21C [NOMEGESTROL ACETATE] | > 30 | > 30 |  |  | > 30 | AC50 [3]: > 30 µM; AC50 (Histamine H1 receptor): > 30 µM
CCCC(CCC)C(=O)O [VALPROIC ACID] |  | 11 |  |  |  | AC50 [1]: > 30 µM; AC50 [2]: > 30 µM
CC(C(=O)O)c1ccc2c(c1)[nH]c1ccc(Cl)cc12 (stereo unspecified) [CARPROFEN] | > 10 | > 30 | > 10 |  |  | AC50 [3]: > 30 µM; AC50 (Histamine H1 receptor): > 10 µM
C=C[C@H]1C[N@@]2CC[C@H]1C[C@@H]2[C@@H](O)c1ccnc2ccc(OC)cc12 [QUINIDINE] | 6.5 | > 10 |  |  | > 30 | AC50 [3]: > 30 µM; AC50 (Histamine H1 receptor): > 10 µM
FC(F)(F)c1ccc(CNc2ccc(Cc3c[nH]c4ncc(Cl)cc34)cn2)cn1 [PEXIDARTINIB] |  |  |  | > 3 |  | 
CN(C)CC[C@@H](c1ccc(Cl)cc1)c1ccccn1 [DEXCHLORPHENIRAMINE] |  | 28 |  |  | > 30 | 
CN(CC1(C)CCCO1)S(=O)(=O)c1ccc(Cl)c(S(N)(=O)=O)c1 (stereo unspecified) [MEFRUSIDE] | > 30 | > 30 |  |  | > 30 | AC50 [3]: > 30 µM; AC50 (Histamine H1 receptor): > 30 µM
COc1ccc(CC2c3cc(OC)c(OC)cc3CC[N+]2(C)CCC(=O)OCCCCCOC(=O)CC[N+]2(C)CCc3cc(OC)c(OC)cc3C2Cc2ccc(OC)c(OC)c2)cc1OC (stereo unspecified) | > 30 | 6.3 | > 30 |  | > 30 | AC50 [3]: > 30 µM; AC50 (Histamine H1 receptor): > 30 µM
CC(CCc1ccccc1)NCC(O)c1ccc(O)c(C(N)=O)c1 (stereo unspecified) [LABETALOL] |  |  |  | > 30 |  | 
CN1CCCCC1CCN1c2ccccc2Sc2ccc([S+](C)[O-])cc21 (stereo unspecified) [MESORIDAZINE] |  |  |  | > 30 |  | 
CC1=C(/C=C/C(C)=C/C=C/C(C)=C/C(=O)O)C(C)(C)CCC1 [TRETINOIN] |  |  |  | > 3 |  | 
COc1cc2nc(N3CCN(C(=O)C4CCCO4)CC3)nc(N)c2cc1OC (stereo unspecified) [TERAZOSIN] |  | > 30 |  |  | > 30 | AC50 [1]: > 30 µM; AC50 [2]: > 30 µM
O=C1CN(/N=C/c2ccc(-c3ccc([N+](=O)[O-])cc3)o2)C(O)=N1 [DANTROLENE] | > 10 | > 30 | > 10 |  | > 30 | AC50 [3]: > 30 µM; AC50 (Histamine H1 receptor): > 10 µM
[H]/N=C(\N/C(=N/[H])Nc1ccc(Cl)cc1)NC(C)C [PROGUANIL] |  |  |  | > 30 |  | 
